# Reference: patent publication US9822105B2, “Diaminotriazine compounds as herbicides” (BASF SE, priority 2014, dated 2017)
# Experiments:
# [1] = system: ABUTH; test: Greenhouse test, pre-emergence treatment; assay type: in vivo, Abutilon theophrasti
# Text: (§1) The seeds of the test plants were sown separately for each species. For the pre-emergence treatment, the active ingredients, which had been suspended or emulsified in water, were applied directly after sowing by means of finely distributing nozzles. The containers were irrigated gently to promote germination and growth and subsequently covered with transparent plastic hoods until the plants had rooted. This cover caused uniform germination of the test plants, unless this had been impaired by the active ingredients. Depending on the species, the plants were kept at 10-25° C. or 20-35° C., respectively. The test period extended over 2 to 4 weeks. During this time, the plants were tended, and their response to the individual treatments was evaluated. Evaluation was carried out using a scale from 0 to 100. 100 means no emergence of the plants, or complete destruction of at least the aerial moieties, and 0 means no damage, or normal course of growth. […] The plants used in the greenhouse experiments were of the following species: [table]
# [2] = system: AMARE; test: Greenhouse test, pre-emergence treatment; assay type: in vivo, Amaranthus retroflexus; details: for pest or weed control at 250 g/ha / pest or weed control at 125 g/ha / pest or weed control at 500 g/ha: Amaranthus retroflexus; for pest or weed control at 250 g/ha: read-out: herbicidal activity, 250 g/ha; for pest or weed control at 125 g/ha: read-out: herbicidal activity, 125 g/ha; for pest or weed control at 500 g/ha: read-out: herbicidal activity, 500 g/ha
# Text: as §1
# [3] = system: ECHCG; test: Greenhouse test, pre-emergence treatment; assay type: in vivo, Echinocloa crus-galli
# Text: as §1
# [4] = system: SETFA; test: Greenhouse test, pre-emergence treatment; assay type: in vivo, Setaria faberi
# Text: as §1
# [5] = system: ALOMY; test: Greenhouse test, pre-emergence treatment; assay type: in vivo, Alopecurus myosuroides; details: 0.5 kg/ha
# Text: as §1
# [6] = system: AMARE; test: Greenhouse test, post-emergence treatment; assay type: in vivo, Amaranthus retroflexus; details: 500 g/ha
# Text: The seeds of the test plants were sown separately for each species. For the post-emergence treatment, the test plants were first grown to a height of […], depending on the plant habit, and only then treated with the active ingredients which had been suspended or emulsified in water. For this purpose, the test plants were either sown directly and grown in the same containers, or they were first grown separately as seedlings and transplanted into the test containers a few days prior to treatment. Depending on the species, the plants were kept at 10-25° C. or 20-35° C., respectively. The test period extended over 2 to 4 weeks. During this time, the plants were tended, and their response to the individual treatments was evaluated. Evaluation was carried out using a scale from 0 to 100. 100 means no emergence of the plants, or complete destruction of at least the aerial moieties, and 0 means no damage, or normal course of growth. […] The plants used in the greenhouse experiments were of the following species: [table]
structure (smiles),measurement,setting,value
CC1Oc2ccc(Cl)c(Nc3nc(N)nc(C(C)(C)F)n3)c2O1 (racemic) [Example 12],herbicidal activity,[1]; 250 g/ha,very good (a very good herbicidal activity is given at values of at least 85)
same,herbicidal activity,[2]; 250 g/ha,very good (a very good herbicidal activity is given at values of at least 85)
same,herbicidal activity,[3]; 250 g/ha,very good (a very good herbicidal activity is given at values of at least 85)
CCC(C)c1nc(N)nc(Nc2c(F)ccc3c2OCO3)n1 (racemic) [Example 16],herbicidal activity,[1]; 125 g/ha,good (a good herbicidal activity is given at values of at least 70)
same,herbicidal activity,[2]; 125 g/ha,very good (a very good herbicidal activity is given at values of at least 85)
CC1CCCN1c1nc(N)nc(Nc2c(F)ccc3c2OCO3)n1 (racemic) [Example 19],herbicidal activity,[2]; 500 g/ha,very good (a very good herbicidal activity is given at values of at least 85)
COC(C)c1nc(N)nc(Nc2c(F)ccc3c2OCO3)n1 (racemic) [Example 32],herbicidal activity,[1]; 125 g/ha,good (a good herbicidal activity is given at values of at least 70)
same,herbicidal activity,[2]; 125 g/ha,good (a good herbicidal activity is given at values of at least 70)
CCC(F)c1nc(N)nc(Nc2c(F)ccc3c2OCO3)n1 (racemic) [Example 33],herbicidal activity,[2]; 125 g/ha,very good (a very good herbicidal activity is given at values of at least 85)
"CC1Oc2ccc(F)c(Nc3nc(N)nc(C(C)(C)F)n3)c2O1 (single isomer, unassigned) [Example 7]",herbicidal activity,[1]; 250 g/ha,very good (a very good herbicidal activity is given at values of at least 85)
same,herbicidal activity,[2]; 250 g/ha,very good (a very good herbicidal activity is given at values of at least 85)
same,herbicidal activity,"[4]; 250 g/ha, SETFA",very good (a very good herbicidal activity is given at values of at least 85)
"CC1Oc2ccc(F)c(Nc3nc(N)nc(C(C)(C)F)n3)c2O1 (single isomer, unassigned) [Example 8]",herbicidal activity,[1]; 250 g/ha,very good (a very good herbicidal activity is given at values of at least 85)
same,herbicidal activity,[2]; 250 g/ha,very good (a very good herbicidal activity is given at values of at least 85)
same,herbicidal activity,"[4]; 250 g/ha, SETFA",very good (a very good herbicidal activity is given at values of at least 85)
"CC1Oc2ccc(F)c(Nc3nc(N)nc(C(C)(C)F)n3)c2O1 (single isomer, unassigned) [Example 35]",herbicidal activity,[3]; 250 g/ha,very good (a very good herbicidal activity is given at values of at least 85)
CC(C)(F)c1nc(N)nc(Nc2c(Cl)ccc3c2OCO3)n1 [Example 2],herbicidal activity,[5],very good (a very good herbicidal activity is given at values of at least 85)
same,herbicidal activity,[2]; 0.5 kg/ha,very good (a very good herbicidal activity is given at values of at least 85)
same,herbicidal activity,"[4]; 0.5 kg/ha, SETFA",very good (a very good herbicidal activity is given at values of at least 85)
CC(C)(F)c1nc(N)nc(Nc2c(Br)c(Br)cc3c2OCO3)n1 [Example 4],herbicidal activity,[1]; 125 g/ha,good (a good herbicidal activity is given at values of at least 70)
Nc1nc(Nc2c(F)ccc3c2OCO3)nc(C2(Cl)CCC2)n1 [Example 5],pest or weed control at 250 g/ha,[2],≥ 85%
same,herbicidal activity,[3]; 250 g/ha,very good (a very good herbicidal activity is given at values of at least 85)
same,herbicidal activity,"[4]; 250 g/ha, SETFA",very good (a very good herbicidal activity is given at values of at least 85)
Nc1nc(Nc2c(Br)ccc3c2OC(F)(F)O3)nc(C2(Cl)CCCC2)n1 [Example 9],herbicidal activity,[6],very good (a very good herbicidal activity is given at values of at least 85)
CC1(C)Oc2ccc(Cl)c(Nc3nc(N)nc(C(C)(C)F)n3)c2O1 [Example 11],herbicidal activity,[1]; 250 g/ha,very good (a very good herbicidal activity is given at values of at least 85)
same,herbicidal activity,[2]; 250 g/ha,very good (a very good herbicidal activity is given at values of at least 85)
same,herbicidal activity,[3]; 250 g/ha,very good (a very good herbicidal activity is given at values of at least 85)
CC1(C)Oc2ccc(F)c(Nc3nc(N)nc(C(C)(C)F)n3)c2O1 [Example 14],herbicidal activity,[1]; 250 g/ha,very good (a very good herbicidal activity is given at values of at least 85)
same,herbicidal activity,[2]; 250 g/ha,very good (a very good herbicidal activity is given at values of at least 85)
same,herbicidal activity,[3]; 250 g/ha,very good (a very good herbicidal activity is given at values of at least 85)
Nc1nc(Nc2c(F)ccc3c2OCO3)nc(C2(F)CCCC2)n1 [Example 15],herbicidal activity,[1]; 250 g/ha,very good (a very good herbicidal activity is given at values of at least 85)
same,herbicidal activity,[2]; 250 g/ha,very good (a very good herbicidal activity is given at values of at least 85)
same,herbicidal activity,"[4]; 250 g/ha, SETFA",very good (a very good herbicidal activity is given at values of at least 85)
CC(C)c1nc(N)nc(Nc2c(F)ccc3c2OCO3)n1 [Example 17],herbicidal activity,[1]; 125 g/ha,good (a good herbicidal activity is given at values of at least 70)
same,pest or weed control at 125 g/ha,[2],≥ 85%
Nc1nc(Nc2c(F)ccc3c2OCO3)nc(N2CCCC2)n1 [Example 20],pest or weed control at 500 g/ha,[2],≥ 85%
COC1(c2nc(N)nc(Nc3c(F)ccc4c3OCO4)n2)CCCCC1 [Example 23],pest or weed control at 125 g/ha,[2],≥ 85%
same,herbicidal activity,[3]; 125 g/ha,good (a good herbicidal activity is given at values of at least 70)
same,herbicidal activity,"[4]; 125 g/ha, SETFA",good (a good herbicidal activity is given at values of at least 70)
CC(C)(C)Cc1nc(N)nc(Nc2c(F)ccc3c2OCO3)n1 [Example 24],herbicidal activity,[1]; 125 g/ha,very good (a very good herbicidal activity is given at values of at least 85)
same,herbicidal activity,[2]; 125 g/ha,very good (a very good herbicidal activity is given at values of at least 85)
same,herbicidal activity,[3]; 125 g/ha,very good (a very good herbicidal activity is given at values of at least 85)
CON(C)c1nc(N)nc(Nc2c(F)ccc3c2OCO3)n1 [Example 25],herbicidal activity,[2]; 500 g/ha,very good (a very good herbicidal activity is given at values of at least 85)
CC(C)Cc1nc(N)nc(Nc2c(F)ccc3c2OCO3)n1 [Example 26],herbicidal activity,[2]; 125 g/ha,very good (a very good herbicidal activity is given at values of at least 85)
same,herbicidal activity,[3]; 125 g/ha,good (a good herbicidal activity is given at values of at least 70)
same,herbicidal activity,"[4]; 125 g/ha, SETFA",good (a good herbicidal activity is given at values of at least 70)
Nc1nc(Nc2c(F)ccc3c2OCO3)nc(C2CCCCC2)n1 [Example 27],pest or weed control at 125 g/ha,[2],≥ 85%
same,herbicidal activity,"[4]; 125 g/ha, SETFA",good (a good herbicidal activity is given at values of at least 70)
Nc1nc(Nc2c(F)ccc3c2OCO3)nc(C2CCCC2)n1 [Example 28],pest or weed control at 125 g/ha,[2],≥ 85%
same,herbicidal activity,[3]; 125 g/ha,good (a good herbicidal activity is given at values of at least 70)
CC(C)(C)c1nc(N)nc(Nc2c(F)ccc3c2OCO3)n1 [Example 29],herbicidal activity,[1]; 125 g/ha,very good (a very good herbicidal activity is given at values of at least 85)
same,pest or weed control at 125 g/ha,[2],≥ 85%
same,herbicidal activity,[3]; 125 g/ha,very good (a very good herbicidal activity is given at values of at least 85)
CC(C)(F)c1nc(N)nc(Nc2c(Cl)c(Cl)cc3c2OCO3)n1 [Example 31],herbicidal activity,[2]; 125 g/ha,very good (a very good herbicidal activity is given at values of at least 85)
same,herbicidal activity,[3]; 125 g/ha,good (a good herbicidal activity is given at values of at least 70)
same,herbicidal activity,"[4]; 125 g/ha, STEFTA",very good (a very good herbicidal activity is given at values of at least 85)
Cn1c(=O)oc2c(Nc3nc(N)nc(C(C)(C)F)n3)c(F)ccc21 [Example 38],herbicidal activity,[2]; 500 g/ha,very good (a very good herbicidal activity is given at values of at least 85)
CC(C)(F)c1nc(N)nc(Nc2c(F)ccc3ncoc23)n1 [Example 39],herbicidal activity,[1]; 250 g/ha,very good (a very good herbicidal activity is given at values of at least 85)
same,pest or weed control at 250 g/ha,[2],≥ 85%
CC(C)(F)c1nc(N)nc(Nc2c(F)ccc3c2CCC3)n1 [Example 41],pest or weed control at 500 g/ha,[2],≥ 85%
CC(C)(F)c1nc(N)nc(Nc2c(Cl)ccc3c2OCCO3)n1 [Example 42],pest or weed control at 125 g/ha,[2],≥ 85%
CC(C)(F)c1nc(N)nc(Nc2c(F)ccc3c2OCCO3)n1 [Example 43],pest or weed control at 500 g/ha,[2],≥ 85%
CC(C)(F)c1nc(N)nc(Nc2c(Cl)ccc3c2OC=CO3)n1 [Example 44],pest or weed control at 500 g/ha,[2],≥ 85%
same,herbicidal activity,[3]; 500 g/ha,very good (a very good herbicidal activity is given at values of at least 85)
CC(C)(F)c1nc(N)nc(Nc2c(F)ccc3c2OC=CO3)n1 [Example 45],herbicidal activity,[1]; 125 g/ha,very good (a very good herbicidal activity is given at values of at least 85)
same,pest or weed control at 125 g/ha,[2],≥ 85%
CC(C)(F)c1nc(N)nc(Nc2c(Cl)ccc3c2CCC3)n1 [Example 47],herbicidal activity,[1]; 250 g/ha,good (a good herbicidal activity is given at values of at least 70)
same,herbicidal activity,[3]; 250 g/ha,good (a good herbicidal activity is given at values of at least 70)
